Measured values published in patent US5286648A, “A84575 antibiotics” (Eli Lilly and Company, priority 1991, dated 1994).
In brackets after ≈: the same amount, converted by molar mass.

Tests used:
[1] = tested on: Staphylococcus epidermidis; test: In vitro activity vs. Staphylococcus epidermidis strains, agar dilution, Mueller-Hinton agar (Table 7); assay type: cell-based
[2] = tested on: Peptococcus magnus; test: Susceptibility of anaerobic cocci isolates, agar dilution (Table 16); assay type: cell-based; settings: Finegoldia magna, 24 h
[3] = tested on: Peptococcus asaccharolyticus; test: as above; assay type: cell-based; settings: Peptoniphilus asaccharolyticus, 24 h
[4] = tested on: Streptococcus pneumoniae; test: In vivo activity, administered subcutaneously to mice (Table 17); settings: sc, subcutaneous, LD challenge 587
[5] = tested on: Peptococcus prevoti; test: Susceptibility of anaerobic bacterial isolates, agar dilution (Table 13); assay type: cell-based; settings: strain 1281; 24 hr; A84575: 3 different lots
From the text: (§1) *MIC Determined by the AgarDilution Method, Endpoints Read After 24Hr.

[6] = tested on: Clostridium difficile; test: as above; assay type: cell-based; settings: Clostridioides difficile; strain 2994; 24 hr; A84575: 3 different lots
From the text: as §1

[7] = tested on: Clostridium septicum; test: as above; assay type: cell-based; settings: strain 1128, 24 hr, A84575: 3 different lots
From the text: as §1

[8] = tested on: Bacteroides thetaiotaomicron; test: as above; assay type: cell-based; settings: strain 1438, 24 hr, A84575: 3 different lots
From the text: as §1

[9] = tested on: Streptococcus pyogenes; test: In vivo activity, administered subcutaneously to mice (Table 17); settings: sc, subcutaneous, LD challenge 464
[10] = tested on: Peptococcus constellatus; test: Susceptibility of anaerobic cocci isolates, agar dilution (Table 16); assay type: cell-based; settings: Streptococcus constellatus, 24 h
[11] = tested on: S. salivarius; test: In vitro activity vs. miscellaneous Streptococcus strains, agar dilution, Mueller-Hinton agar (Table 9)
[12] = tested on: Bacteroides malaninogenicus; test: Susceptibility of anaerobic bacterial isolates, agar dilution (Table 13); assay type: cell-based; settings: 24 h
[13] = tested on: Peptostreptococcus anaerobium; test: as above; assay type: cell-based; settings: 24 h
[14] = tested on: Peptococcus prevoti; test: Susceptibility of anaerobic cocci isolates, agar dilution (Table 16); assay type: cell-based; settings: 24 hr, A84575: 3 different lots
From the text: as §1

[15] = tested on: Streptococcus sp. (Group D); test: In vitro activity vs. Streptococcus sp. (Group D) strains, agar dilution, Mueller-Hinton agar (Table 8); assay type: cell-based
[16] = tested on: Eubacterium aerofaciens; test: Susceptibility of anaerobic bacterial isolates, agar dilution (Table 13); assay type: cell-based; settings: Collinsella aerofaciens, 24 h
[17] = tested on: Clostridium difficile; test: Susceptibility of Clostridium difficile strains, agar dilution (Table 14); assay type: cell-based; settings: Clostridioides difficile, 24 h
From the text: as §1

[18] = tested on: Propionibacterium acnes; test: Susceptibility of anaerobic bacterial isolates, agar dilution (Table 13); assay type: cell-based; settings: Cutibacterium acnes, 24 h

CN[C@H](CC(C)C)C(=O)N[C@H]1C(=O)N[C@@H](CC(N)=O)C(=O)N[C@H]2C(=O)N[C@H]3C(=O)N[C@H](C(=O)N[C@H](C(=O)O)c4cc(O)cc(O)c4-c4cc3ccc4O)[C@H](O)c3ccc(c(Cl)c3)Oc3cc2cc(c3O[C@@H]2O[C@H](CO)[C@@H](O)[C@H](O)[C@H]2O[C@H]2C[C@](C)(N)[C@H](O)[C@H](C)O2)Oc2ccc(cc2Cl)[C@H]1O [Vancomycin]
MIC ([1]; strain 10-S-81, methicillin-resistant): 1 µg/mL (≈ 0.69 µM) | MIC ([1]; strain 1202-18): 2 µg/mL (≈ 1.38 µM) | MIC ([1]; strain 3078): 1 µg/mL (≈ 0.69 µM) | MIC ([1]; strain 3079): 2 µg/mL (≈ 1.38 µM) | MIC ([1]; strain 12477, methicillin-resistant): 2 µg/mL (≈ 1.38 µM) | MIC ([1]; strain 48213): 2 µg/mL (≈ 1.38 µM) | MIC ([1]; strain 48989): 1 µg/mL (≈ 0.69 µM) | MIC ([1]; strain 49030): 2 µg/mL (≈ 1.38 µM) | MIC ([1]; strain 49128, methicillin-resistant): 1 µg/mL (≈ 0.69 µM) | MIC ([1]; strain 49536): 1 µg/mL (≈ 0.69 µM) | MIC ([1]; strain 50766): 1 µg/mL (≈ 0.69 µM) | MIC ([1]; strain S-3): 2 µg/mL (≈ 1.38 µM) | MIC ([1]; strain ST-214, methicillin-resistant): 0.5 µg/mL (≈ 0.345 µM) | MIC ([1]; strain ST-215, methicillin-resistant): 2 µg/mL (≈ 1.38 µM) | MIC ([1]; strain ST-216): 1 µg/mL (≈ 0.69 µM) | MIC ([1]; strain ST-217, methicillin-resistant): 1 µg/mL (≈ 0.69 µM) | MIC ([1]; strain ST-220, methicillin-resistant): 1 µg/mL (≈ 0.69 µM) | MIC ([1]; strain ST-222, methicillin-resistant): 0.5 µg/mL (≈ 0.345 µM) | MIC ([2]; strain 1401, A84575: 3 different lots): 0.125 µg/mL (≈ 0.0863 µM) | MIC ([2]; strain 1421, A84575: 3 different lots): 0.5 µg/mL (≈ 0.345 µM) | MIC ([2]; strain 29328, A84575: 3 different lots): 1 µg/mL (≈ 0.69 µM) | MIC ([3]; strain 1302, A84575: 3 different lots): 1 µg/mL (≈ 0.69 µM) | MIC ([3]; strain WAL-3218, A84575: 3 different lots): 0.125 µg/mL (≈ 0.0863 µM) | ED50 [4]: 1.58 mg/kg | MIC [5]: 4 µg/mL (≈ 2.76 µM) | MIC [6]: 2 µg/mL (≈ 1.38 µM) | MIC [7]: 2 µg/mL (≈ 1.38 µM) | MIC [8]: 16 µg/mL (≈ 11 µM) | ED50 [9]: 0.72 mg/kg | MIC [10]: 1 µg/mL (≈ 0.69 µM) | MIC [11]: 1 µg/mL (≈ 0.69 µM) | MIC ([12]; strain 1856/28, A84575: 3 different lots): > 64 µg/mL | MIC ([12]; strain 2736, A84575: 3 different lots): 16 µg/mL (≈ 11 µM) | MIC [13]: 1 µg/mL (≈ 0.69 µM) | MIC ([14]; strain 1281, read-out: MIC): 2 µg/mL (≈ 1.38 µM) | MIC ([14]; strain 1293): 2 µg/mL (≈ 1.38 µM) | MIC ([14]; strain 1407): 2 µg/mL (≈ 1.38 µM) | MIC ([15]; strain 282): 1 µg/mL (≈ 0.69 µM) | MIC ([15]; strain 8043): 1 µg/mL (≈ 0.69 µM) | MIC ([15]; strain 9901): 2 µg/mL (≈ 1.38 µM) | MIC ([15]; strain 9913): 1 µg/mL (≈ 0.69 µM) | MIC ([15]; strain 9933 Beta): 4 µg/mL (≈ 2.76 µM) | MIC ([15]; strain 9960): 4 µg/mL (≈ 2.76 µM) | MIC ([15]; strain 12253F): 1 µg/mL (≈ 0.69 µM) | MIC ([15]; strain 22521): 4 µg/mL (≈ 2.76 µM) | MIC ([15]; strain M10): 4 µg/mL (≈ 2.76 µM) | MIC ([15]; strain M11): 1 µg/mL (≈ 0.69 µM) | MIC ([15]; strain M12): 4 µg/mL (≈ 2.76 µM) | MIC ([15]; strain M13): 2 µg/mL (≈ 1.38 µM) | MIC ([15]; strain M20): 1 µg/mL (≈ 0.69 µM) | MIC ([15]; strain M21): 4 µg/mL (≈ 2.76 µM) | MIC ([15]; strain M28): 4 µg/mL (≈ 2.76 µM) | MIC ([15]; strain M36): 4 µg/mL (≈ 2.76 µM) | MIC ([15]; strain M38): 1 µg/mL (≈ 0.69 µM) | MIC ([15]; strain Shrigley): 2 µg/mL (≈ 1.38 µM) | MIC ([15]; strain Van Almen): 4 µg/mL (≈ 2.76 µM) | MIC ([15]; strain Vietnam): 2 µg/mL (≈ 1.38 µM) | MIC [16]: 8 µg/mL (≈ 5.52 µM) | MIC ([17]; strain 78, A84575: 3 different lots): 4 µg/mL (≈ 2.76 µM) | MIC ([17]; strain 107B, A84575: 3 different lots): 0.25 µg/mL (≈ 0.173 µM) | MIC ([17]; strain 111F, A84575: 3 different lots): 1 µg/mL (≈ 0.69 µM) | MIC ([17]; strain 1153, A84575: 3 different lots): 1 µg/mL (≈ 0.69 µM) | MIC ([17]; strain 2634, A84575: 3 different lots): 0.5 µg/mL (≈ 0.345 µM) | MIC ([17]; strain 3424-5B, A84575: 3 different lots): 1 µg/mL (≈ 0.69 µM) | MIC ([17]; strain 3816, A84575: 3 different lots): 1 µg/mL (≈ 0.69 µM) | MIC ([17]; strain 3950D, A84575: 3 different lots): 0.5 µg/mL (≈ 0.345 µM) | MIC ([17]; strain 6890, A84575: 3 different lots): 0.5 µg/mL (≈ 0.345 µM) | MIC ([17]; strain 8484, A84575: 3 different lots): 2 µg/mL (≈ 1.38 µM) | MIC ([17]; strain A-194, A84575: 3 different lots): 1 µg/mL (≈ 0.69 µM) | MIC ([17]; strain A-195, A84575: 3 different lots): 0.5 µg/mL (≈ 0.345 µM) | MIC ([17]; strain A-196, A84575: 3 different lots): 0.5 µg/mL (≈ 0.345 µM) | MIC ([17]; strain A-279, A84575: 3 different lots): 0.5 µg/mL (≈ 0.345 µM) | MIC ([17]; strain A-280, A84575: 3 different lots): 1 µg/mL (≈ 0.69 µM) | MIC ([17]; strain A-281, A84575: 3 different lots): 1 µg/mL (≈ 0.69 µM) | MIC ([17]; strain WAL-2112, A84575: 3 different lots): 1 µg/mL (≈ 0.69 µM) | MIC ([17]; strain WAL-3657, A84575: 3 different lots): 2 µg/mL (≈ 1.38 µM) | MIC ([17]; strain WAL-4268, A84575: 3 different lots): 1 µg/mL (≈ 0.69 µM) | MIC [18]: 4 µg/mL (≈ 2.76 µM)
